The values that follow are results of earlier work, collected in patent EP4052553A1, “AGRICHEMICAL COMPOSITION FOR TREATING SEEDS AND USE THEREOF” (priority 2019, dated 2021).

The conditions of this data set: distilled water at 20°C.
As for `CCCc1ccc2nc(Cl)c(S(=O)(=O)NC(=O)Nc3nc(OC)cc(OC)n3)n2n1` [propyrisulfuron], the aqueous solubility is 0.98 ppm.
On to `COCc1cccc(C(O)c2nc(OC)cc(OC)n2)c1NS(=O)(=O)C(F)F` (stereo not drawn) [pyrimisulfan], for which the aqueous solubility is 87 ppm.
On to `COc1ccc(-n2c(=O)c(C(=O)C3C(=O)CCCC3=O)nc3c(Cl)cccc32)cc1` [fenquinotrione], for which the aqueous solubility is listed as 17 ppm.
As for `CCOC(=O)c1cnn(C)c1S(=O)(=O)NC(=O)Nc1nc(OC)cc(OC)n1` [pyrazosulfuron-ethyl], the aqueous solubility was 9.8 ppm.
Regarding `COc1cc(OC)nc(Oc2cccc(Oc3nc(OC)cc(OC)n3)c2C(=O)ON=C(c2ccccc2)c2ccccc2)n1` [pyribenzoxim], the aqueous solubility was 3.5 ppm.
With `CCCOCCN(C(=O)CCl)c1c(CC)cccc1CC` [pretilachlor], the aqueous solubility is listed as 74 ppm.
For `CC(C)=C1OC(=O)N(c2cc(OC3CCCC3)c(Cl)cc2F)C1=O` [pentoxazone], the aqueous solubility was 0.22 ppm.
For `COc1nc(OC)nc(C(=O)c2cccc(F)c2N(C)S(=O)(=O)C(F)F)n1` [triafamone], the aqueous solubility is listed as 41 ppm.
In the case of `COc1cc(OC)nc(Sc2cccc3c2C(=O)OC3C)n1` (stereo not drawn) [pyriftalid], the aqueous solubility is on record as 1.8 ppm.
For the compound `CCOC(=O)c1ccccc1S(=O)(=O)NC(=O)Nc1nc(Cl)cc(OC)n1` [chlorimuron-ethyl], the aqueous solubility is given as 8.6 ppm.
As for `COc1cc(OC)nc(NC(=O)NS(=O)(=O)Nc2ccccc2C(=O)C2CC2)n1` [cyclosulfamuron], the aqueous solubility is recorded as 0.34 ppm.
Consider `Cc1ccc(C(=O)COc2c(C(=O)c3ccc(Cl)c(C)c3Cl)c(C)nn2C)cc1` [benzofenap], for which the aqueous solubility is recorded as 0.12 ppm.
Consider `CO/N=C(/C)c1cccc(Oc2nc(OC)cc(OC)n2)c1C(=O)OC` [pyriminobac-methyl], for which the aqueous solubility is on record as 9.3 ppm.
For the compound `C#CCN(C)c1c(C#N)cnn1-c1nn2c(c1Cl)CCCC2` [pyraclonil], the aqueous solubility is given as 50.1 ppm.
For the compound `C[C@@H](Oc1ccc(Oc2nc3ccc(Cl)cc3o2)cc1)C(=O)N(C)c1ccccc1F` [metamifop], the aqueous solubility is reported as 0.69 ppm.
For `CCC(CC)Nc1c([N+](=O)[O-])cc(C)c(C)c1[N+](=O)[O-]` [Pendimethalin], the aqueous solubility was 0.26 ppm.
For the compound `CS(=O)(=O)c1ccc(C(=O)C2=C(Sc3ccccc3)C3CCC(C3)C2=O)c(Cl)c1` (stereo not drawn) [benzobicyclon], the aqueous solubility is 0.052 ppm.
Turning to `COC(=O)c1c(Cl)nn(C)c1S(=O)(=O)NC(=O)Nc1nc(OC)cc(OC)n1` [halosulfuron-methyl], the aqueous solubility is reported as 10.2 ppm.
